The values below come from patent US20250129047A1, “ISOQUINOLINE DERIVATIVES AS MUTANT EGFR MODULATORS AND USES THEREOF” (NEWAVE PHARMACEUTICAL INC., priority 2021, published 2025).

The IC50 is the concentration at which inhibition is half-maximal.

Holding throughout (conditions): apparent IC50; 1.0 mM ATP or ATP Km; FL-Peptide 22 substrate; 25° C.
Assay [1] addresses T1, EGFR L858R (Homo sapiens, UniProt P00533, L858R).
T1 construct: purchased SignalChem E10-122BG
In words: Biochemical EGFR inhibition assay (Caliper mobility shift), EGFR L858R. As to the method: (§1) Inhibitory effects of the compounds of the disclosure were measured in biochemical assays that measure the phosphorylation activity of EGFR enzyme phosphorylates 2.5 micromolar 5-FAM-EEPLYWSFPAKKK-CONFF peptide substrate (FL-Peptide 22, PerkinElmer, 760366) in the presence of adenosine-5′-triphosphate (ATP) and varying concentrations of the test compound in 100 mM 2-[4-(2-hydroxyethyl)piperazin-1-yl]ethanesulfonic acid (HEPES), pH 7.5, 10 mM MgCE. 0.015% Brij-35, 1 mM dithiothreitol (DTT), 1.0% dimehylsulfoxide (DMSO). Assays were performed at 1.0 mM ATP or at ATP Km of the EGFR enzymes. Reactions proceeded until between 10% to 20% total peptides were phosphorylated at room temperature (25° C.) and were terminated with 35 mM 2,2′,2″,2″-(ethane-1,2-diyldinitrilo)tetraacetic acid (EDTA). Product was detected using the Caliper mobility shift detection method where the phosphorylated peptide (product) and substrate were electrophoretically separated and measured. Percent activity was plotted against log concentration of compound and points to generate an apparent IC50. […]

The target in assay [2] is T2, EGFR (d746-750) T790M C797S (Homo sapiens, UniProt P00533, C797S/DEL746-750/T790M).
T2 construct: purchased SignalChem E10-122UG
In words: Biochemical EGFR inhibition assay (Caliper mobility shift), EGFR d746-750 T790M C797S. As to the method:
as §1

Assay [3] deals with T3, EGFR (L858R T790M C797S) (Homo sapiens, UniProt P00533, C797S/L858R/T790M).
T3 construct: purchased SignalChem E10-122VG
Put plainly: Biochemical EGFR inhibition assay (Caliper mobility shift), EGFR L858R T790M C797S. As to the method: as §1

The target of assay [4] is EGFR d746-750 T790M (Homo sapiens, UniProt P00533, DEL746-750/T790M). In words: Biochemical EGFR inhibition assay (Caliper mobility shift), EGFR d746-750 T790M. As to the method:
as §1

Assay [5] has as its target EGFR L858R T790M (Homo sapiens, UniProt P00533, L858R/T790M). Put plainly: Biochemical EGFR inhibition assay (Caliper mobility shift), EGFR L858R T790M. As to the method:
as §1

T1 sequence (P00533 25-1210 L858R): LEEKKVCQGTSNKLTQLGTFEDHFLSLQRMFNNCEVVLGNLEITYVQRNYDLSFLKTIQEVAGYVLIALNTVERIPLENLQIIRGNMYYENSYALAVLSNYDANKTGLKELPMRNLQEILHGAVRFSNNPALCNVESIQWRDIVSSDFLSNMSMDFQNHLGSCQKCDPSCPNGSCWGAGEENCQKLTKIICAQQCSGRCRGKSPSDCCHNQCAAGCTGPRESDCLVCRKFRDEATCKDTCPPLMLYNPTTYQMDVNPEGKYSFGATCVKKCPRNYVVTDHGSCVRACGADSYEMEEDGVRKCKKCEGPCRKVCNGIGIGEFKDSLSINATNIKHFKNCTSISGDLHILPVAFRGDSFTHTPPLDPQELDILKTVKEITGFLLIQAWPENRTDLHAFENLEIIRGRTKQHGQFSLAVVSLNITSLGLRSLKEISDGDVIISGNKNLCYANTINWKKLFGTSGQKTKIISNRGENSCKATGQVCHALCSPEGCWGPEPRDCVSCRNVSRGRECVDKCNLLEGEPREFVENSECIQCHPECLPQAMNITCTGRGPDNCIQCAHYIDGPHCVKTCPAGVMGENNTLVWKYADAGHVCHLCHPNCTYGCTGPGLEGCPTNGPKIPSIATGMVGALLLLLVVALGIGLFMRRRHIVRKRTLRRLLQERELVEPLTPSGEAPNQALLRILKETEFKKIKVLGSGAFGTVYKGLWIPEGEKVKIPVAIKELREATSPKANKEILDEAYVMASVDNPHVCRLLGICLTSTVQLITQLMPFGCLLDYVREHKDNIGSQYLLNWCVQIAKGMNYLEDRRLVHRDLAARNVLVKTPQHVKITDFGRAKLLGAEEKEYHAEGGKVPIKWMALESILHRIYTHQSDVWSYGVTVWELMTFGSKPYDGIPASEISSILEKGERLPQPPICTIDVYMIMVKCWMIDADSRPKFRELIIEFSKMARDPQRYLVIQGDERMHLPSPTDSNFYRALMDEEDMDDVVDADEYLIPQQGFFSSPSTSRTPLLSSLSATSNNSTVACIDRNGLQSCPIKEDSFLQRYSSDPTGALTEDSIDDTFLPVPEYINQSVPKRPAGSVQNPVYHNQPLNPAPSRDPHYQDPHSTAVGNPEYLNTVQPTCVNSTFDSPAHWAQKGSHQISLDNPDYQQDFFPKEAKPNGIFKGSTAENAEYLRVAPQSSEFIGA
T2 sequence (P00533 with tags, fused parts or gaps DEL746-750/T790M/C797S limits assumed): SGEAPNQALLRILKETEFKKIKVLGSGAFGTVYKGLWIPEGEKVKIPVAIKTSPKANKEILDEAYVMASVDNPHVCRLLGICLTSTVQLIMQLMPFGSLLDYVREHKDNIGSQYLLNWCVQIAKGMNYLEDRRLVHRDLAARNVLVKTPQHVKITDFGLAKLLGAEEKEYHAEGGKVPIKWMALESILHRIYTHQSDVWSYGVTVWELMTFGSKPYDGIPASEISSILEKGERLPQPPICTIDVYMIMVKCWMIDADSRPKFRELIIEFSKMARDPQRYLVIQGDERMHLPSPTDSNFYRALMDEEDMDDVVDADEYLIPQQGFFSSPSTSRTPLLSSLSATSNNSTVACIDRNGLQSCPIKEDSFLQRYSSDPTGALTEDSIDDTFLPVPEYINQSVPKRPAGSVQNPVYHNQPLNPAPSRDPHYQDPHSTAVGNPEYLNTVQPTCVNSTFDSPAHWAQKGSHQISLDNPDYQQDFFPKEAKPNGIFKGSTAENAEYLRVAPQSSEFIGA
Chain of EGFR L858R T790M (P00533 25-1210 T790M/L858R): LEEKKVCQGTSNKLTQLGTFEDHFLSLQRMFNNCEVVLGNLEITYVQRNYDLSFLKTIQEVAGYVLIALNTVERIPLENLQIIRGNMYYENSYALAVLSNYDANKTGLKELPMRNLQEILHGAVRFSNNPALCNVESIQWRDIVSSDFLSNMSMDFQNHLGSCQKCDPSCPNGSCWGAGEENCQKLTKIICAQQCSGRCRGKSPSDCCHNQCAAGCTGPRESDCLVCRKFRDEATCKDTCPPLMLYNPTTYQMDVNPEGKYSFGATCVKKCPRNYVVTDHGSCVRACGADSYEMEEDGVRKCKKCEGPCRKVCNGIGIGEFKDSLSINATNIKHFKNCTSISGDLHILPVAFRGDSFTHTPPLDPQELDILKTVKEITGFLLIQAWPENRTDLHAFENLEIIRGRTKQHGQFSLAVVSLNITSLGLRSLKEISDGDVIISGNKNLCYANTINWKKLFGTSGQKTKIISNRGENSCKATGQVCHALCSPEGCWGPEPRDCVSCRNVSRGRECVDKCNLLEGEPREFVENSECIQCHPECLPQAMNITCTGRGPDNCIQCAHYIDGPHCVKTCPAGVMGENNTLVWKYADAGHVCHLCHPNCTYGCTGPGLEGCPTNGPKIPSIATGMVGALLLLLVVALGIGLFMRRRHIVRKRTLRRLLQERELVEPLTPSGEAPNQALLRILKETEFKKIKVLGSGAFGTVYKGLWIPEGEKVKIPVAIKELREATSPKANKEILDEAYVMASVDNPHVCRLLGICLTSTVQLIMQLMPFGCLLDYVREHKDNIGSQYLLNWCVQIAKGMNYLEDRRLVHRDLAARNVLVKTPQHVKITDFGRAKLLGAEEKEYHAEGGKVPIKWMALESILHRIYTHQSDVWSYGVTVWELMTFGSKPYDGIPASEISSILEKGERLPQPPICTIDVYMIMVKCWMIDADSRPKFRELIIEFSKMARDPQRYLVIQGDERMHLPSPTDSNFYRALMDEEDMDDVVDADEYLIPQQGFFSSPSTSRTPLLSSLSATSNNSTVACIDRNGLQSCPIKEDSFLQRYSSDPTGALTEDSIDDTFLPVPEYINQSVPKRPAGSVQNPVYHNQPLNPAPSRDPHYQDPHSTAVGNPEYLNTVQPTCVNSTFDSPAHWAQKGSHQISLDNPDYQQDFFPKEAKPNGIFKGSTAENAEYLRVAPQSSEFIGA
Chain of EGFR d746-750 T790M (P00533 with tags, fused parts or gaps DEL746-750/T790M limits assumed): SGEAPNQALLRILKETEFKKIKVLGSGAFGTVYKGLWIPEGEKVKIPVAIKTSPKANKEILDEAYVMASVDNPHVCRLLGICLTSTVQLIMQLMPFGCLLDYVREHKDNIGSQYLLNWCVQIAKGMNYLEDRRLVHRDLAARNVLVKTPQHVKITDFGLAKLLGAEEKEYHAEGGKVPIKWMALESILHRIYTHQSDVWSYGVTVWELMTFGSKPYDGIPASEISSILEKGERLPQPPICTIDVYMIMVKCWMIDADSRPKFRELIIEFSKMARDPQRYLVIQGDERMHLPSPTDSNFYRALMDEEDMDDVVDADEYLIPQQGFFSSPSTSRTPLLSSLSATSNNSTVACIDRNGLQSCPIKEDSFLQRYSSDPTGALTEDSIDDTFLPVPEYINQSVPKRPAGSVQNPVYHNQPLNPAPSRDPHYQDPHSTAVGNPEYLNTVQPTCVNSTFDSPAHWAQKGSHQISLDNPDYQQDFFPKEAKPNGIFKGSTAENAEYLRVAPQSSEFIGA
T3 sequence (P00533 25-1210 T790M/C797S/L858R): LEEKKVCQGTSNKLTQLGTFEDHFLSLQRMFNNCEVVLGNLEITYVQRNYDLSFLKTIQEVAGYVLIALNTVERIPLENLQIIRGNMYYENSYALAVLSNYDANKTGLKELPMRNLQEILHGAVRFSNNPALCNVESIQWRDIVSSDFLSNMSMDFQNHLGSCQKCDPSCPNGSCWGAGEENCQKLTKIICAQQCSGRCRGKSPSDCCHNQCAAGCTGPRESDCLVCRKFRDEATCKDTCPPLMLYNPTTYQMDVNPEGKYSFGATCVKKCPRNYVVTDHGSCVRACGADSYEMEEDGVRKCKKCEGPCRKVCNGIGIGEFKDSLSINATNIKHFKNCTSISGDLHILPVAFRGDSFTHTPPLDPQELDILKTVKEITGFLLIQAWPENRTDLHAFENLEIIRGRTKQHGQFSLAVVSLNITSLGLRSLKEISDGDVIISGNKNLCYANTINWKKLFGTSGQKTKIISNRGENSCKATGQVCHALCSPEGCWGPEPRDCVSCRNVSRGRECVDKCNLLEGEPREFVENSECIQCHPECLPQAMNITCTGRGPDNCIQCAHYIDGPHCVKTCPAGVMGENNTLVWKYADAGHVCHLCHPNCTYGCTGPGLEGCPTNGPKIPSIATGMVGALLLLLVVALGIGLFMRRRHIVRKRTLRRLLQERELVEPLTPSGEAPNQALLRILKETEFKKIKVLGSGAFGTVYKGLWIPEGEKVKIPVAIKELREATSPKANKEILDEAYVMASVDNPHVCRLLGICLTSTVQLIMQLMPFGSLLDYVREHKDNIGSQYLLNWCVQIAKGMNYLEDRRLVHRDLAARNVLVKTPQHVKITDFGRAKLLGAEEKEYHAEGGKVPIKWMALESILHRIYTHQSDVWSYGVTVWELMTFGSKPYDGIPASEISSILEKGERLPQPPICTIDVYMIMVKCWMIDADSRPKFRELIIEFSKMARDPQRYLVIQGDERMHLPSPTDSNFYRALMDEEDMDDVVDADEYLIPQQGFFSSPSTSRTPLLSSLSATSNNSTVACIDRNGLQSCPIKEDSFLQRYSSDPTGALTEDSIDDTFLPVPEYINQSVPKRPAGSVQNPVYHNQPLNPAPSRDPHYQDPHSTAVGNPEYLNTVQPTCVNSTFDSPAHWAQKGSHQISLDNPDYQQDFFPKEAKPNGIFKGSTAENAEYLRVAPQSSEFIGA

`C=CC(=O)N1CCC[C@H]1c1ccc(N2C[C@H](CS(C)(=O)=O)[C@H]2C)c2cnc(Nc3ccnc(N4CC[C@@H](OC)[C@@H](F)C4)n3)cc12` [Example 2, 1-[(2S)-2-[3-({2-[(3S,4R)-3-fluoro-4-methoxypiperidin-1-yl]pyrimidin-4-yl}amino)-8-[(2R,3S)-3-(methanesulfonylmethyl)-2-methylazetidin-1-yl]isoquinolin-5-yl]pyrrolidin-1-yl]prop-2-en-1-one]: the IC50 amounted to 100 nM in assay [1] and 2.3 nM in assay [2].

For the compound `C=CC(=O)N1CCC[C@@H]1c1ccc(N2C[C@H](CS(C)(=O)=O)[C@H]2C)c2cnc(Nc3ccnc(N4CC[C@@H](OC)[C@@H](F)C4)n3)cc12` [Example 3, 1-[(2R)-2-[3-({2-[(3S,4R)-3-fluoro-4-methoxypiperidin-1-yl]pyrimidin-4-yl}amino)-8-[(2R,3S)-3-(methanesulfonylmethyl)-2-methylazetidin-1-yl]isoquinolin-5-yl]pyrrolidin-1-yl]prop-2-en-1-one], the IC50 in assay [1] came to 1.5 nM; in assay [3], 0.69 nM; in assay [4], 0.88 nM; in assay [2] it was 0.15 nM; in assay [5], 0.29 nM.
